# In paper PMC6104039 (Nature Communications, 2018):
# Several values for one entry are separate records, joined by “and”; a condition that tells them apart may be missing. Equal entries are not always repeated.
# Columns and labels:
# liver = assay: Lipidomic profiling of liver; type: in vivo, mice; conditions: for Ceramide 18:1/16:0 content of liver / Ceramide 18:1/18:0 content of liver / Ceramide 18:1/20:0 content of liver / Ceramide 18:1/22:0 content of liver / Ceramide 18:1/22:1 content of liver / Ceramide 18:1/24:0 content of liver / Ceramide 18:1/24:1 content of liver / SM 34:1 content of liver / SM 36:1 content of liver / SM 38:1 content of liver / SM 40:1 content of liver / SM 40:2 content of liver / SM 42:1 content of liver / SM 42:2 content of liver / SM 42:3 content of liver: individual mice; for Ceramide 18:1/16:0 content of liver / Ceramide 18:1/18:0 content of liver / Ceramide 18:1/20:0 content of liver / Ceramide 18:1/22:0 content of liver / Ceramide 18:1/22:1 content of liver / Ceramide 18:1/24:0 content of liver / Ceramide 18:1/24:1 content of liver: raw data Fig 3j; for SM 34:1 content of liver / SM 36:1 content of liver / SM 38:1 content of liver / SM 40:1 content of liver / SM 40:2 content of liver / SM 42:1 content of liver / SM 42:2 content of liver / SM 42:3 content of liver: raw data Fig 3k
# Procedure: Male C57BL6/J mice were obtained from the Animal Resources Centre in Perth (WA, Australia). Mice were housed at 22 ± 1 °C with a controlled 12:12 h light-dark cycle and had ad libitum access to water and either chow (8% calories from fat) or HFD (45% calories from fat)[66] for 4–6 weeks. […] Treatment was commenced at the same time as mice were randomised to dietary groups. The experiments were approved by the UNSW animal care and ethics committee (ACEC 15/48B), and followed guidelines issued by the National Health and Medical Research Council of Australia.
# Lipids were extracted from frozen tissue samples or cells using a two-phase procedure with methyl-tert-butyl ether (MTBE)/methanol/water (10:3:2.5, v/v/v)[67]. Frozen tissue samples (~20 mg) were homogenized in 0.2 mL methanol containing 0.01% butylated hydroxytoluene (BHT), using a Precellys 24 homogenizer and Cryolys cooling unit (Bertin Technologies) with CK14 (1.4-mm ceramic) beads. The homogenates were spiked with an internal standard mixture comprising 5 nmole 19:0/19:0 phosphatidylcholine and 2 nmole each of 17:0/17:0 phosphatidylethanolamine, 17:0/17:0 phosphatidylserine, 17:0/17:0 d5-diacylglycerol, 17:0/17:0 phosphatidylglycerol, 14:0/14:0/14:0/14:0 cardiolipin, 18:1/12:0 SM, 18:1/17:0 ceramide, 18:1/12:0 glucosylceramide, 18:1/12:0 lactosylceramide, 18:1/12:0 sulfatide (all from Avanti Polar Lipids, USA), and 17:0/17:0/17:0 TAG (Cayman Chemical, USA), then transferred to 10 mL screw cap glass tubes. The homogenization tubes containing beads were then washed with another 0.3 mL methanol, and this wash was combined with the first methanol extract, after which 1.7 mL MTBE was added and the samples were sonicated in an ice-cold sonicating water bath (Thermoline Scientific, Australia) for 30 min. Phase separation was induced by addition of 417 µL of mass spectrometry-grade water followed by vortexing and centrifugation at 1000 × g for 10 min. The upper organic phase was collected into 5 mL glass tubes. The lower phase was re-extracted by adding 1 mL MTBE, 300 μL methanol, and 250 μL water. The organic phases were combined in the 5 mL glass tubes and dried under vacuum in a Savant SC210 SpeedVac (Thermo Scientific), then reconstituted in 500 μL methanol and stored at −20 °C until analysis.
# Lipidomic profiling was performed on a QExactive Plus mass spectrometer with heated electrospray ionization (HESI) probe and a Dionex UltiMate 2000 LC pump (Thermo Fisher Scientific). Extracts were resolved on a 2.1 × 100 mm Waters Acquity C18 UPLC column (1.7 µm […]), using a binary gradient in which mobile phase A consisted of acetonitrile:water (60:40), 10 mM ammonium formate, 0.1% formic acid; and mobile phase B was isopropanol:acetonitrile (90:10), 10 mM ammonium formate, 0.1% formic acid[68]. The flow rate was 260 µL/min and column oven 55 °C. Data was acquired in full scan/data-dependent MS^2 mode (full scan resolution 70,000 FWHM, scan range 400–1200 m/z). The ten most abundant ions in each cycle were subjected to MS^2 using an isolation window of 1.4 m/z, collision energy 30 eV, resolution 17,500, maximum integration time 110 ms and dynamic exclusion window 10 s. An exclusion list of background ions was used based on a solvent blank. LipidSearch v4.1.30 software (ThermoFisher Scientific) was used for chromatogram alignment, peak identification and integration. Each lipid peak was manually verified for column elution time and characteristic fragment ions. Data were then exported to an Excel spreadsheet for normalisation of each lipid to its class-specific internal standard, and lipid concentrations were calculated relative to the internal standard.
# Data were log transformed, then subjected to two-tailed t-tests adjusted for multiple comparisons using GraphPad PRISM (Benjamini, Krieger and Yekutieli correction, Q = 1%).
# HEK293 cells = assay: Non-viable cells by propidium iodide staining and flow cytometry, 72 h; type: cell-based; conditions: at or below 1 μM
# Procedure: Lipid levels are expressed as a percentage of vehicle control levels. […] All graphs show combined data from two independent experiments, each with 3 (a) or 4 (b-d) separate cell treatments, mean ± SEM. Statistical significance in (b-d) was determined by t-tests adjusted for multiple comparisons, comparing all lipids (22 lipids tested in total) at each concentration to the control group; ^+P < 0.05; ^#P < 0.01; *P < 0.001
compound,measurement,setting,value
"C[C@@](N)(CO)CCc1ccc(OCc2ccc(Cl)c(Cl)c2)cc1 [P053, (S)-2-amino-4-(4-(3,4-dichlorobenzyloxy)phenyl)-2-methylbutan-1-ol]",Ceramide 18:1/16:0 content of liver,liver; Chow + P053,0.263 and 0.826 and 0.657 and 1.600 and 0.958 and 0.311 and 0.952 and 1.950 and 1.430 and 1.980
same,Ceramide 18:1/18:0 content of liver,liver; Chow + P053,0.468 and 0.536 and 0.500 and 0.564 and 0.490 and 0.488 and 0.800 and 0.676 and 0.526 and 0.572
same,Ceramide 18:1/20:0 content of liver,liver; Chow + P053,0.373 and 0.356 and 0.495 and 0.460 and 0.417 and 0.442 and 0.880 and 0.398 and 0.505 and 0.396
same,Ceramide 18:1/22:0 content of liver,liver; Chow + P053,3.920 and 1.760 and 3.420 and 5.450 and 4.500 and 5.040 and 3.220 and 5.390 and 4.280 and 5.730
same,Ceramide 18:1/22:1 content of liver,liver; Chow + P053,0.723 and 0.782 and 0.523 and 0.904 and 0.601 and 0.629 and 0.682 and 0.527 and 0.912 and 0.679
same,Ceramide 18:1/24:0 content of liver,liver; Chow + P053,3.590 and 2.080 and 4.670 and 4.260 and 5.640 and 4.820 and 3.660 and 3.820 and 3.320 and 4.860
same,Ceramide 18:1/24:1 content of liver,liver; Chow + P053,6.030 and 5.880 and 4.990 and 7.190 and 10.500 and 7.070 (2×) and 5.770 and 7.700 and 9.200
same,SM 34:1 content of liver,liver; Chow + P053,166.01 and 387.90 and 294.94 and 188.63 and 560.02 and 385.72 and 339.20 and 244.42 and 416.06 and 213.21
same,SM 36:1 content of liver,liver; Chow + P053,17.50 and 23.09 and 28.72 and 28.48 and 31.35 and 32.32 and 36.07 and 17.60 and 29.53 and 28.44
same,SM 38:1 content of liver,liver; Chow + P053,20.23 and 36.64 and 18.78 and 30.07 and 30.24 and 24.30 and 33.98 and 28.61 and 27.66 and 25.39
same,SM 40:1 content of liver,liver; Chow + P053,190.28 and 236.56 and 278.04 and 382.12 and 238.06 and 386.25 and 326.88 and 330.28 and 377.35 and 269.17
same,SM 40:2 content of liver,liver; Chow + P053,31.01 and 36.97 and 24.71 and 36.72 and 38.54 and 35.80 and 48.00 and 37.75 and 38.85 and 32.99
same,SM 42:1 content of liver,liver; Chow + P053,17.79 and 25.33 and 19.04 and 17.96 and 14.02 and 33.47 and 24.89 and 25.97 and 20.36 and 14.52
same,SM 42:2 content of liver,liver; Chow + P053,265.43 and 723.53 and 60.59 and 173.83 and 445.88 and 448.77 and 411.18 and 225.87 and 409.74 and 354.33
same,SM 42:3 content of liver,liver; Chow + P053,12.99 and 95.71 and 34.45 and 42.03 and 46.27 and 40.91 and 37.02 and 32.31 and 26.34 and 23.58
same,Ceramide 18:1/16:0 content of liver,liver; HFD + P053,1.320 and 0.972 and 0.437 and 1.310 and 0.312 and 0.006 and 2.340 and 2.140 and 1.290 and 1.500
same,Ceramide 18:1/18:0 content of liver,liver; HFD + P053,0.435 and 0.273 and 0.474 and 0.459 and 0.643 and 0.366 and 0.820 and 0.267 and 0.974 and 0.526
same,Ceramide 18:1/20:0 content of liver,liver; HFD + P053,0.582 and 0.659 and 1.010 and 1.000 and 0.971 and 0.637 and 0.716 and 0.382 and 1.670 and 1.340
same,Ceramide 18:1/22:0 content of liver,liver; HFD + P053,5.900 and 4.030 and 8.630 and 5.080 and 3.630 and 4.930 and 8.270 and 6.990 and 8.250 and 9.280
same,Ceramide 18:1/22:1 content of liver,liver; HFD + P053,0.333 and 0.644 and 0.674 and 0.925 and 0.703 and 0.380 and 0.572 and 0.319 and 0.786 and 0.444
same,Ceramide 18:1/24:0 content of liver,liver; HFD + P053,5.470 and 0.260 and 4.890 and 2.480 and 1.780 and 2.580 and 4.330 and 4.610 and 7.520 and 5.820
same,Ceramide 18:1/24:1 content of liver,liver; HFD + P053,6.580 and 2.880 and 4.960 and 4.030 and 5.720 and 2.860 and 6.330 and 6.390 and 11.600 and 5.550
same,SM 34:1 content of liver,liver; HFD + P053,482.51 and 71.17 and 450.03 and 341.58 and 602.82 and 140.43 and 342.86 and 326.17 and 1409.61 and 780.28
same,SM 36:1 content of liver,liver; HFD + P053,53.21 and 102.16 and 78.05 and 79.54 and 65.66 and 116.67 and 78.22 and 28.49 and 259.61 and 108.18
same,SM 38:1 content of liver,liver; HFD + P053,71.47 and 53.18 and 46.58 and 23.22 and 42.32 and 78.12 and 59.56 and 48.00 and 174.38 and 50.63
same,SM 40:1 content of liver,liver; HFD + P053,580.97 and 447.50 and 671.33 and 376.94 and 209.01 and 396.09 and 367.60 and 345.17 and 872.91 and 711.11
same,SM 40:2 content of liver,liver; HFD + P053,46.18 and 47.77 and 24.90 and 19.09 and 21.42 and 31.04 and 27.87 and 23.30 and 72.99 and 30.73
same,SM 42:1 content of liver,liver; HFD + P053,18.56 and 11.22 and 9.61 and 4.95 and 13.26 and 9.80 and 20.61 and 8.52 and 19.00 and 16.17
same,SM 42:2 content of liver,liver; HFD + P053,531.45 and 245.25 and 263.63 and 192.83 and 186.28 and 157.29 and 222.03 and 342.17 and 572.48 and 255.77
same,SM 42:3 content of liver,liver; HFD + P053,38.83 and 26.76 and 24.26 and 23.94 and 22.31 and 29.44 and 41.75 and 49.23 and 92.66 and 37.38
same,265 lipids measured in liver,liver; chow or HFD,none was significantly affected
same,HEK293 cell viability,HEK293 cells,no effect
